These results are taken from patent US20070015770A1 (priority 2003, published 2007).

Like-named read-outs stand apart in the source and are kept apart here.

The assay has as its system Pyricularia oryzae. The assay is classed as in vivo. The following applies: individual active compound, rice seedlings Tai-Nong 67, protective spray, evaluated 6 days after inoculation.

Turning to `CC1CCN(c2c(-c3c(F)cc(F)cc3F)c(Cl)nc3ncnn23)CC1` [I, 5-chloro-7-(4-methylpiperidin-1-yl)-6-(2,4,6-trifluorophenyl)-[1,2,4]triazolo[1,5-a]pyrimidine], the “Efficacy in % of the untreated control” value reads like this: (1 ppm in the spray liquor) 16%; (4 ppm in the spray liquor) 28%.

On to `COCC(=O)N(c1c(C)cccc1C)[C@H](C)C(=O)OC` [II (metalaxyl-M), methyl N-(methoxyacetyl)-N-(2,6-xylyl)-D-alaninate], for which, where the note is “4 ppm in the spray liquor”, the “Efficacy in % of the untreated control” value is listed as 0%.

Regarding `CC1CCN(c2c(-c3c(F)cccc3Cl)c(Cl)nc3ncnn23)CC1` [comparative compound A], the “Efficacy in % of the untreated control” value by setting is: (1 ppm in the spray liquor) 0%; (4 ppm in the spray liquor) 4%.

On to `C[C@H](Nc1c(-c2c(F)cc(F)cc2F)c(Cl)nc2ncnn12)C(F)(F)F` [comparative compound B], for which the “Efficacy in % of the untreated control” value is, setting by setting: (1 ppm in the spray liquor) 4%; (4 ppm in the spray liquor) 40%.
